Assay results published in article PMC11597260 (Pharmaceutics, 2024).
Where “and” joins values, the source holds several entries; their conditions need not be identical. Equal entries are not always repeated. Where two headings read alike, the source gives them in different places.

How the values were obtained:
[1] = Stability of spiked rat plasma QC samples under storage conditions; type: in vitro ADME; settings: for Stability, Accuracy (%): rat plasma, mean ± SD, n = 3; for stability of rat plasma samples under storage conditions: room temperature 4 h, 4 °C 8 h, −40 °C 7 days, three freeze–thaw cycles
[2] = Pharmacokinetic study in rats after oral and intratracheal administration of curcumin (plasma, LC-MS/MS); type: in vivo, Sprague-Dawley rats
Method: This preparation was then diluted with saline to obtain the desired concentrations for animal experiments.
Twelve male SD rats were randomly divided into two groups with six rats each, one for oral administration and the other for inhalation administration. […] Blood samples of approximately 200 μL were collected via intravenous routes at pre-determined time points: before administration and at 5, 15, 30, and 45 min, and 1, 2, 4, 6, and 8 h post-administration. The blood samples were immediately placed in heparinized EP tubes and kept on ice. […] The specific method of intratracheal administration is depicted in Figure 1, and details of the administration process are provided in the Supplementary Materials (Supplementary Figure S2). Blood samples of about 200 μL were collected at time points before administration and at 2, 5, 15, and 30 min, and 1, 2, 4, 6, 8, 12, and 24 h post-administration, also placed in heparinized EP tubes and kept on ice. The whole blood samples were centrifuged at 4 °C at 5000× g for 10 min within 30 min of collection. The plasma was then separated, aliquoted, and stored at −40 °C until analysis.
The major pharmacokinetic parameters including elimination half-life (t1/2), time to reach peak concentration (Tmax), peak concentration (Cmax), area under the curve (AUC), and mean residence time (MRT) were calculated using Phoenix WinNonlin software (Version 8.2, Certara, Radnor, PA, USA). A non-compartmental model was employed for these calculations, which is suitable for analyzing drug concentration data over time without assuming a specific compartmental structure. Graph Prism 8 was utilized to create graphs and plots that illustrate the pharmacokinetic behavior of the compounds of interest. Statistical analysis was performed using IBM SPSS Statistics 26 to conduct a t-test on the dose-normalized AUC(0−t) values from the two different administration groups. […] The results were considered statistically significant at a p-value less than 0.05, indicating a difference between the groups.

[3] = oral curcumin in rats; cited from earlier work
[4] = tested on: Caco-2 cell model; settings: cited from earlier work
[5] = 6 ng/mL, freeze-thaw three cycles
[6] = 6 ng/mL, room temperature for 4 h
[7] = 60 ng/mL, freeze-thaw three cycles
[8] = 60 ng/mL, room temperature for 4 h
[9] = 320 ng/mL, freeze-thaw three cycles
[10] = 320 ng/mL, room temperature for 4 h
[11] = rat plasma, i.t. curcumin 10 mg/kg (27.17 μmol/kg), mean ± SD, n = 6
[12] = rat plasma, i.t. curcumin 10 mg/kg, dose-normalized to oral dose (inhalation/0.5)
[13] = rat plasma, p.o. curcumin 20 mg/kg (54.34 μmol/kg), mean ± SD, n = 6
[14] = male, Sprague-Dawley, rat, plasma, inhaled or intranasal, 10 mg/kg

| SMILES | Stability, Accuracy (%) ([1]; 6 ng/mL, 4 ℃ for 8 h) | Stability, Accuracy (%) ([1]; 6 ng/mL, 40 ℃ for 7 d) | Stability, Accuracy (%) [1, 5] [%] | Stability, Accuracy (%) [1, 6] [%] | Stability, Accuracy (%) ([1]; 60 ng/mL, 4 ℃ for 8 h) | Stability, Accuracy (%) ([1]; 60 ng/mL, 40 ℃ for 7 d) | Stability, Accuracy (%) [1, 7] [%] | Stability, Accuracy (%) [1, 8] [%] | Stability, Accuracy (%) ([1]; 320 ng/mL, 4 ℃ for 8 h) | Stability, Accuracy (%) ([1]; 320 ng/mL, 40 ℃ for 7 d) | Stability, Accuracy (%) [1, 9] [%] | Stability, Accuracy (%) [1, 10] [%] | stability of rat plasma samples under storage conditions [1] | AUC(0–t) [2, 11] [µM·h] | AUC(0–∞) [2, 11] [µM·h] | Cmax [2, 11] [nM] | MRT(0–t) [2, 11] [h] | Tmax [2, 11] [h] | t1/2 [2, 11] [h] | AUC(0–t)/0.5 [2, 12] [µM·h] | other results |
| --- | --- | --- | --- | --- | --- | --- | --- | --- | --- | --- | --- | --- | --- | --- | --- | --- | --- | --- | --- | --- | --- |
| COc1cc(/C=C/C(=O)CC(=O)/C=C/c2ccc(O[C@@H]3O[C@H](C(=O)O)[C@@H](O)[C@H](O)[C@H]3O)c(OC)c2)ccc1O [COG] | 88.10±4.59 | 104.10±7.03 | 89.23±3.79 | 90.20±4.16 | 90.43±2.97 | 87.13±2.10 | 87.93±2.81 | 95.53±2.01 | 93.60±2.52 | 88.93±0.99 | 87.87±2.32 | 95.73±2.23 | stable | 0.8863 ± 0.1783 | 0.9189 ± 0.1678 | 521 ± 203 | 4.33 ± 1.69 | 0.25 ± 0.00 | 3.10 ± 0.95 | 1.772 ± 0.3566 | exposure relative to COS ([2]; rat plasma, oral dosing of 20 mg/kg curcumin): 30–40 times; AUC(0–t) [2, 13]: 1.68 ± 0.2441 µM·h; AUC(0–∞) [2, 13]: 1.73 ± 0.2565 µM·h; Cmax [2, 13]: 830 ± 158 nM; MRT(0–t) [2, 13]: 2.54 ± 0.29 h; Tmax [2, 13]: 0.54 ± 0.71 h; t1/2 [2, 13]: 1.74 ± 0.57 h |
| COc1cc(/C=C/C(=O)CC(=O)/C=C/c2ccc(OS(=O)(=O)O)c(OC)c2)ccc1O [COS] | 100.63±2.40 | 90.73±1.36 | 93.73±4.97 | 99.67±4.83 | 93.27±2.31 | 94.53±0.40 | 93.23±0.96 | 96.63±1.39 | 99.23±1.50 | 92.43±5.58 | 93.80±0.46 | 100.77±0.65 | stable | 1.377 ± 0.6043 | 1.444 ± 0.6249 | 416 ± 138 | 5.14 ± 1.03 | 0.38 ± 0.14 | 5.02 ± 1.27 | 2.754 ± 1.208 | exposure, AUC(0–t)/0.5 intratracheal relative to AUC(0–t) oral ([2]; rat plasma, i.t. 10 mg/kg dose-normalized vs p.o. 20 mg/kg): ~50 fold; AUC(0–t) [2, 13]: 0.04978 ± 0.02714 µM·h; AUC(0–∞) [2, 13]: 0.0577 ± 0.02778 µM·h; Cmax [2, 13]: 23.4 ± 9.4 nM; MRT(0–t) [2, 13]: 2.37 ± 0.98 h; Tmax [2, 13]: 1.13 ± 0.96 h; t1/2 [2, 13]: 1.11 ± 0.87 h |
| COc1cc(/C=C/C(=O)CC(=O)/C=C/c2ccc(O)c(OC)c2)ccc1O [CUR, Curcumin] | 96.00±2.57 | 105.13±4.11 | 102.33±7.46 | 92.53±2.91 | 97.73±0.83 | 97.40±0.36 | 95.20±2.19 | 98.57±2.22 | 102.67±0.06 | 93.87±3.21 | 90.10±4.20 | 103.93±1.07 | – | – | – | – | – | – | – | – | bioavailability [3]: less than 1%; Papp [4]: 3.18 ± 1.08 × 10^−6 cm/s; AUC(0-inf) [2, 14]: 1.38 ± 0.37 µM·h; Cmax [2, 14]: 2880 ± 742 nM; half-life [2, 14]: 3.73 ± 1.03 h; AUC(0-t) ([2]; male, Sprague-Dawley, rat, plasma, inhaled or intranasal, 10 mg/kg, rat plasma, i.t. curcumin 10 mg/kg (27.17 μmol/kg), mean ± SD, n = 6, read-out: AUC(0–t)): 1.33 ± 0.374 µM·h; AUC(0-t) ([2]; male, Sprague-Dawley, rat, plasma, inhaled or intranasal, 10 mg/kg, rat plasma, i.t. curcumin 10 mg/kg, dose-normalized to oral dose (inhalation/0.5), read-out: AUC(0–t)/0.5): 2.65 ± 0.749 µM·h; MRT last ([2]; male, Sprague-Dawley, rat, plasma, inhaled or intranasal, 10 mg/kg, read-out: MRT(0–t)): 2.01 ± 0.78 h; Tmax ([2]; male, Sprague-Dawley, rat, plasma, inhaled or intranasal, 10 mg/kg, read-out: Tmax): 0.05 ± 0.03 h; AUC(0-t) ([2]; male, Sprague-Dawley, rat, plasma, po, 20 mg/kg, rat plasma, p.o. curcumin 20 mg/kg, calculated using the lower limit of quantification over 6 h, read-out: AUC(0–t)): < 0.0326 µM·h; plasma levels of the parent compound (below lower limit of quantification) ([2]; rat plasma, oral dosing of 20 mg/kg curcumin, 20 mg/kg): < 2 ng/mL and < 5.434 nM |
